Results published in patent US9931347B2, “Pharmaceutical compound” (IOmet Pharma Ltd., priority 2013, dated 2018).

How the values were obtained:
Recombinant human IDO = Recombinant human IDO (Homo sapiens, UniProt P14902); test: hIDO biochemical coupled assay; settings: 45 μM L-tryptophan, coupled with kynurenine formamidase
Experimental: (§1) Exemplary compounds of the invention were prepared, and tested to determine their effect as TDO and/or IDO inhibitors. Two different assays were employed: 1. a cell-based assay for detecting the effect of test compounds on kynurenine production in two different cancer cell types. This assay utilised cancer cells which expressed either TDO or IDO and as such was used as a means of testing compound activity at these two enzymes in a cell-based context. 2. a TDO and IDO biochemical coupled assay which utilised recombinantly produced and purified TDO and IDO enzymes in combination with the enzyme formamidase. This coupled enzyme system allowed conversion of N-formylkynurenine produced by TDO or IDO activity to kynurenine which was then quantified by fluorescence following addition of Erhlich's Reagent The protocols for these are set out below.
Recombinant human IDO or TDO was incubated in 50 mM KPO4 (pH 7.0), 0.5 mM EGTA, 0.5 mM EDTA, 0.05% Triton™ X100, 20 mM ascorbate, 10 μM methylene blue, 500 U/ml catalase, 50 μg/ml KynB (kynurenine formamidase).

[1] = target: T1, IDO (SKOV3 human ovarian adenocarcinoma cells, IFN-γ induced) (Homo sapiens, UniProt P14902); test: SKOV3 Kynurenine cell based assay; settings: IDO induced by 500 ng/ml IFN-γ, 500 μM L-tryptophan, 48 hours
T1 construct: IDO expression was induced in the SKOV3 cells by the addition of 500 ng/ml IFN-γ; endogenous in cells; host or cells: SKOV3 human ovarian adenocarcinoma cells, induced with IFN-γ
Experimental: as §1
(§2) A172 (human glioblastoma) and SKOV3 (human ovarian adenocarcinoma) cells were seeded in a 96 well plate at 30,000 or 40,000 cells per well respectively in phenol red-free RPMI supplemented with 10% FCS, 2 mM L-glutamine and 500 μM L-tryptophan. IDO expression was induced in the SKOV3 cells by the addition of 500 ng/ml IFN-γ. Cells were incubated at 37° C. with or without the addition of test compound. After 48 hours, the cells were removed by centrifugation and Erhlich's reagent was added to the supernatant.

[2] = target: T2, TDO (A172 human glioblastoma cells) (Homo sapiens, UniProt P48775); test: A172 Kynurenine cell based assay; settings: 500 μM L-tryptophan, 48 hours, kynurenine by Erhlich's reagent
T2 construct: This assay utilised cancer cells which expressed either TDO or IDO; endogenous in cells; host or cells: A172 human glioblastoma cells
Experimental: as §1
as §2, with “supernatant. The Erhlich's reagent was incubated for 5 minutes before the absorbance was read at 490 nm.” for “supernatant.”

T2 sequence (P48775 whole entry): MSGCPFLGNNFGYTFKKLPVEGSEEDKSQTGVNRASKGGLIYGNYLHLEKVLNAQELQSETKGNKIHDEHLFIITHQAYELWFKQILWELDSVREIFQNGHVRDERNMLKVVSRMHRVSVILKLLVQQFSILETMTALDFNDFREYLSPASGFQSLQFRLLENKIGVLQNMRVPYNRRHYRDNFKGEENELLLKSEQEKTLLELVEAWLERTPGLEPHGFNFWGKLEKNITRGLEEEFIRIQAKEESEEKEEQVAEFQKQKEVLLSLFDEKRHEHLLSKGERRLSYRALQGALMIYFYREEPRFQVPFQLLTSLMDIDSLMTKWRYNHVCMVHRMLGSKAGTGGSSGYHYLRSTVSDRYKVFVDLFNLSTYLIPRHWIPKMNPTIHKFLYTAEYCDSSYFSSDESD
T1 sequence (P14902 whole entry): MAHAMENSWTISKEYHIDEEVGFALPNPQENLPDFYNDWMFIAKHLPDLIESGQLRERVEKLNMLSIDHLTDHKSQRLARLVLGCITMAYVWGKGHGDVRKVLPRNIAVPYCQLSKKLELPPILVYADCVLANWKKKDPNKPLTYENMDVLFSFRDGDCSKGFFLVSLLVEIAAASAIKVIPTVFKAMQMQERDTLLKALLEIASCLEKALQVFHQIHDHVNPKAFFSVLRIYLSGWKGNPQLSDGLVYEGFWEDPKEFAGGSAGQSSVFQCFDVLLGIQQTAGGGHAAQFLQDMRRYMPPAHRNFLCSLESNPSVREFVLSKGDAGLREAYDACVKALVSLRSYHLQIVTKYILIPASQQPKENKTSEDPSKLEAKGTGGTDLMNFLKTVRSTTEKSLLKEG
Sequence of Recombinant human IDO (P14902 whole entry): as above

Row | hIDO biocehmical assay pIC50 (Recombinant human IDO) | SKOV3 Kynurenine cell based assay pIC50 [1] | A172 Kynurenine cell based assay pIC50 [2] | Compound
1 | +− (+− = pIC50 <4.00) | +− (+− = pIC50 <4.00) | + (+ = pIC50 4.00-4.99) | Cc1cccc2c(C3CCN(S(=O)(=O)c4cc(F)c(F)cc4Cl)CC3)c[nH]c12 [Compound 38]
2 | +− (+− = pIC50 <4.00) | + (+ = pIC50 4.00-4.99) | + (+ = pIC50 4.00-4.99) | Cc1cc(S(=O)(=O)N2CCC(c3c[nH]c4ccc(F)cc34)CC2)c(Cl)cc1Cl [Compound 39]
3 | +− (+− = pIC50 <4.00) | +− (+− = pIC50 <4.00) | + (+ = pIC50 4.00-4.99) | Cc1cccc2c(C3CCN(S(=O)(=O)c4ccc(C(C)(C)C)cc4)CC3)c[nH]c12 [Compound 40]
4 | +− (+− = pIC50 <4.00) | + (+ = pIC50 4.00-4.99) | + (+ = pIC50 4.00-4.99) | Cc1cccc2c(C3CCN(C(=O)c4cnn(-c5ccccc5)c4C(F)(F)F)CC3)c[nH]c12 [Compound 41]
5 | +− (+− = pIC50 <4.00) | + (+ = pIC50 4.00-4.99) | + (+ = pIC50 4.00-4.99) | COc1ccc2[nH]cc(C3CCN(S(=O)(=O)c4ccc(C(F)(F)F)cc4Cl)CC3)c2c1 [Compound 43]
6 | +− (+− = pIC50 <4.00) | + (+ = pIC50 4.00-4.99) | + (+ = pIC50 4.00-4.99) | COc1ccc(Cl)cc1S(=O)(=O)N1CCC(c2c[nH]c3c(C)cccc23)CC1 [Compound 45]
7 | +− (+− = pIC50 <4.00) | +− (+− = pIC50 <4.00) | + (+ = pIC50 4.00-4.99) | Cc1cccc2c(C3CCN(S(=O)(=O)c4cccc(C(F)(F)F)c4)CC3)c[nH]c12 [Compound 46]
8 | +− (+− = pIC50 <4.00) | + (+ = pIC50 4.00-4.99) | + (+ = pIC50 4.00-4.99) | CCCc1ccc(S(=O)(=O)N2CCC(c3c[nH]c4c(C)cccc34)CC2)cc1 [Compound 48]
9 | +− (+− = pIC50 <4.00) | + (+ = pIC50 4.00-4.99) | ++ (++ = pIC50 5.00-5.99) | Cc1cccc2c(C3CCN(S(=O)(=O)c4ccccc4S(C)(=O)=O)CC3)c[nH]c12 [Compound 49]
10 | +− (+− = pIC50 <4.00) | + (+ = pIC50 4.00-4.99) | + (+ = pIC50 4.00-4.99) | CCc1cc(Br)ccc1S(=O)(=O)N1CCC(c2c[nH]c3ccc(C)cc23)CC1 [Compound 50]
11 | +− (+− = pIC50 <4.00) | + (+ = pIC50 4.00-4.99) | + (+ = pIC50 4.00-4.99) | O=S(=O)(c1ccccc1OC(F)(F)F)N1CCC(c2c[nH]c3ccc(F)cc23)CC1 [Compound 51]
12 | +− (+− = pIC50 <4.00) | + (+ = pIC50 4.00-4.99) | +− (+− = pIC50 <4.00) | CC(=O)Nc1ccc(S(=O)(=O)N2CCC(c3c[nH]c4ccccc34)CC2)cc1Cl [Compound 52]
13 | +− (+− = pIC50 <4.00) | + (+ = pIC50 4.00-4.99) | + (+ = pIC50 4.00-4.99) | COc1ccc2[nH]cc(C3CCN(S(=O)(=O)c4cccc(OC(F)(F)F)c4)CC3)c2c1 [Compound 53]
14 | +− (+− = pIC50 <4.00) | +− (+− = pIC50 <4.00) | + (+ = pIC50 4.00-4.99) | CC(=O)N1CCN(c2c[nH]c3ccccc23)CC1 [Compound 107]
15 | +− (+− = pIC50 <4.00) | +− (+− = pIC50 <4.00) | + (+ = pIC50 4.00-4.99) | CS(=O)(=O)N1CCN(c2c[nH]c3ccccc23)CC1 [Compound 108]
16 | +− (+− = pIC50 <4.00) | + (+ = pIC50 4.00-4.99) | + (+ = pIC50 4.00-4.99) | CC(=O)N1CC=C(c2c[nH]c3ccc(OCc4ccccc4)cc23)CC1 [Compound 155]

Row | hIDO biocehmical assay pIC50 (Recombinant human IDO) | SKOV3 Kynurenine cell based assay pIC50 [1] | A172 Kynurenine cell based assay pIC50 [2] | Compound
17 | +− (+− = pIC50 <4.00) | + (+ = pIC50 4.00-4.99) | + (+ = pIC50 4.00-4.99) | CC(=O)N1CC=C(c2c[nH]c3cc(OCc4ccccc4)ccc23)CC1 [Compound 156]
18 | +− (+− = pIC50 <4.00) | + (+ = pIC50 4.00-4.99) | + (+ = pIC50 4.00-4.99) | CC(=O)N1CC=C(c2c[nH]c3cccnc23)CC1 [Compound 157]
19 | +− (+− = pIC50 <4.00) | +− (+− = pIC50 <4.00) | + (+ = pIC50 4.00-4.99) | CC(=O)N1CCC(c2c[nH]c3ccc(F)cc23)CC1 [Compound 158]
20 | +− (+− = pIC50 <4.00) | +− (+− = pIC50 <4.00) | ++ (++ = pIC50 5.00-5.99) | CS(=O)(=O)N1CCC(c2c[nH]c3ccc(F)cc23)CC1 [Compound 159]
21 | +− (+− = pIC50 <4.00) | + (+ = pIC50 4.00-4.99) | +− (+− = pIC50 <4.00) | Cc1[nH]c2ccccc2c1C1=CCN(S(C)(=O)=O)CC1 [Compound 160]
22 | +− (+− = pIC50 <4.00) | + (+ = pIC50 4.00-4.99) | +− (+− = pIC50 <4.00) | Cc1[nH]c2ccccc2c1C1CCN(S(C)(=O)=O)CC1 [Compound 161]
23 | +− (+− = pIC50 <4.00) | + (+ = pIC50 4.00-4.99) | + (+ = pIC50 4.00-4.99) | COc1cccc2[nH]cc(C3=CCN(C(C)=O)CC3)c12 [Compound 169]
24 | +− (+− = pIC50 <4.00) | + (+ = pIC50 4.00-4.99) | ++ (++ = pIC50 5.00-5.99) | CS(=O)(=O)N1CC=C(c2c[nH]c3ccncc23)CC1 [Compound 170]
25 | +− (+− = pIC50 <4.00) | +− (+− = pIC50 <4.00) | ++ (++ = pIC50 5.00-5.99) | CS(=O)(=O)N1CC=C(c2c[nH]c3cnccc23)CC1 [Compound 171]
26 | +− (+− = pIC50 <4.00) | + (+ = pIC50 4.00-4.99) | + (+ = pIC50 4.00-4.99) | CC(=O)N1CC=C(c2c[nH]c3ccncc23)CC1 [Compound 172]
27 | +− (+− = pIC50 <4.00) | ++ (++ = pIC50 5.00-5.99) | + (+ = pIC50 4.00-4.99) | Fc1ccc2c(C3CCN(c4ncccn4)CC3)c[nH]c2c1 [Compound 180]
28 | +− (+− = pIC50 <4.00) | +− (+− = pIC50 <4.00) | ++ (++ = pIC50 5.00-5.99) | CC(=O)N1CCCC(c2c[nH]c3cc(F)ccc23)CC1 (stereo not drawn) [Compound 181]
29 | +− (+− = pIC50 <4.00) | + (+ = pIC50 4.00-4.99) | ++ (++ = pIC50 5.00-5.99) | CS(=O)(=O)N1CCCC(c2c[nH]c3cc(F)ccc23)CC1 (stereo not drawn) [Compound 182]
30 |  | + (+ = pIC50 4.00-4.99) | + (+ = pIC50 4.00-4.99) | Fc1ccc2c(C3CCN(c4ccncc4)CC3)c[nH]c2c1 [Compound 301]
31 |  | + (+ = pIC50 4.00-4.99) | ++ (++ = pIC50 5.00-5.99) | CC(=O)N1CCC(c2c[nH]c3cc(F)ccc23)CC1(C)C (stereo not drawn) [Compound 316]
32 |  | + (+ = pIC50 4.00-4.99) | ++ (++ = pIC50 5.00-5.99) | CC1(C)CC(c2c[nH]c3cc(F)ccc23)CCN1S(C)(=O)=O (stereo not drawn) [Compound 317]
